We go through 16 compounds from patent US8883771B2, “Bivalent inhibitors of IAP proteins and therapeutic methods using the same” (The Regents of the University of Michigan, priority 2012, dated 2014).

Assay [1] deals with cIAP-2 BIR3 (residues 238-349) (Homo sapiens (Human), UniProt Q13489). Description: Fluorescence polarization (FP) based competitive binding assay, cIAP-2 BIR3. Conditions: FP competitive assay, Smac-2F probe; read-out: Binding Affinities IC50 (nM) cIAP2 Protein. The protocol:
(§1) For cIAP-1 BIR3 and cIAP-2 BIR3 assays, a fluorescently labeled Smac mimetic (Smac-2F) was used as the fluorescent probe. The Kd values of Smac-2F to cIAP-1 BIR3 and cIAP-2 BIR3 were determined by monitoring the total fluorescence polarization of mixtures composed with the fluorescent probe at a fixed concentration and proteins with increasing concentrations up to full saturation. Fluorescence polarization values were measured using the Infinite M-1000 plate reader (Tecan U.S., Research Triangle Park, N.C.) in Microfluor 2 96-well, black, round-bottom plates (Thermo Scientific). To each well, 1 nM of SMAC-2F and increasing concentrations of protein were added to a final volume of 125 μl in the assay buffer (100 mM potassium phosphate, pH 7.5, 100 μg/ml bovine γ-globulin, 0.02% sodium azide, Invitrogen, with 4% DMSO). Plates were incubated at room temperature for 1-2 hours and mixed with gentle shaking to assure equilibrium. […] Equilibrium dissociation constants (Kd) were then calculated by fitting the sigmoidal dose-dependent FP increases as a function of protein concentrations using Graphpad Prism 5.0 software (Graphpad Software, San Diego, Calif.).
(§2) Mixtures of 5 μl of the tested compounds in DMSO and 120 μl of preincubated protein/tracer complex in the assay buffer (100 mM potassium phosphate, pH 7.5, 100 μg/ml bovine γ-globulin, 0.02% sodium azide, Invitrogen) were added into assay plates and incubated at room temperature for 2 hours with gentle shaking. Final concentrations of proteins and probes were 3 nM and 1 nM, 5 nM and 1 nM for assays for cIAP-1 BIR3 and cIAP-2 BIR3, respectively. […] FP values were measured as described above. IC50 values were determined by nonlinear regression fitting of the competition curves. The Ki values of competitive inhibitors were calculated using the derived equation described previously, based upon the measured IC50 values, the Kd values of the probe to different proteins, and the concentrations of the proteins and probes in the competitive assays.

For assay [2], the system named is MDA-MB-231 breast cancer cell line. Description: Inhibition of cell growth in MDA-MB-231 breast cancer cell line. It is filed as cell-based, human.
The target in assay [3] is XIAP linker-BIR2-BIR3 (residues 120-356) (Homo sapiens (Human), UniProt P98170). Description: Fluorescence polarization (FP) based competitive binding assay, XIAP linker-BIR2-BIR3. As to conditions: FP competitive assay, Smac-1F probe; read-out: Binding Affinities IC50 (nM) XIAP Protein. The protocol: as §1, §2
The FP-based assay for XIAP linker-BIR2-BIR3 protein was performed with the same procedures. In this assay, a bivalent fluorescently tagged peptidic Smac mimetic (Smac-1F) was used as the fluorescent probe whose Kd value to XIAP linker-BIR2-BIR3 was determined similarly through the saturation experiments. 0.01% of Triton X-100 was added in the assay buffer to achieve stable fluorescence and polarization value of the dimeric fluorescent probe. Final protein and probe concentrations utilized in the competitive assay were 3 nM and 1 nM, respectively.

In assay [4] the target is cIAP1-BIR3 (residues 253-363) (Homo sapiens (Human), UniProt Q13490). As to the kind of experiment: Fluorescence polarization (FP) based competitive binding assay, cIAP1-BIR3. As to conditions: Smac-2F probe, read-out: Binding Affinities IC50 (nM) cIAP1 Protein. The protocol:
as §1, §2

Assay [5] relates to SK-OV-3 ovarian cancer cell line. As to the kind of experiment: Inhibition of cell growth in SK-OV-3 ovarian cancer cell line. The assay is classed as cell-based, human.
Setting [6] is: Homo sapiens, MDA-MB-231 breast cancer cell line.
The mark [7] stands for this setting: Homo sapiens, SK-OV-3 ovarian cancer cell line.
The mark [8] stands for this setting: Homo sapiens, MDA-MB-231, MDA-MB-231 breast cancer cell line.
Setting [9] is: Homo sapiens, SK-OV-3, SK-OV-3 ovarian cancer cell line.

Consider `CN[C@@H](C)C(=O)N[C@H]1CN(S(=O)(=O)CCCCCCCCS(=O)(=O)N2CC[C@H]3CC[C@@H](C(=O)NC(c4ccccc4)c4ccccc4)N3C(=O)[C@@H](NC(=O)[C@H](C)NC)C2)CC[C@H]2CCC(C(=O)NC(c3ccccc3)c3ccccc3)N2C1=O` (some centres unmarked) [Example 10], for which the IC50 in assay [1] was below 100 nM; in assay [2] (setting [6]) it was below 1000 nM; in assay [3], below 10 nM; in assay [4], below 100 nM; in assay [5] (setting [7]), below 1000 nM.

As for `CN[C@@H](C)C(=O)N[C@H]1CN(S(=O)(=O)CCC/C=C/CCCS(=O)(=O)N2CC[C@H]3CC[C@@H](C(=O)NC(c4ccccc4)c4ccccc4)N3C(=O)[C@@H](NC(=O)[C@H](C)NC)C2)CC[C@H]2CCC(C(=O)NC(c3ccccc3)c3ccccc3)N2C1=O` (some centres unmarked) [Example 8], the IC50 in assay [1] was below 100 nM; in assay [2] (setting [6]), below 1000 nM; in assay [3], below 10 nM; in assay [4], below 100 nM; in assay [5] (setting [7]), below 1000 nM.

Take `CN[C@@H](C)C(=O)N[C@H]1CN(C(=O)NCCCCCCNC(=O)N2CC[C@H]3CC[C@@H](C(=O)N[C@H]4CCC[C@@H]4c4ccccc4)N3C(=O)[C@@H](NC(=O)[C@H](C)NC)C2)CC[C@H]2CCC(C(=O)N[C@H]3CCC[C@@H]3c3ccccc3)N2C1=O` (stereo in doubt) [Example 42]: the IC50 is below 3000 nM in assay [1]; below 1000 nM in assay [2] (setting [8]); below 1000 nM in assay [3]; below 1000 nM in assay [4]; below 1000 nM in assay [5] (setting [9]).

As for `CN[C@@H](C)C(=O)N[C@H]1CN(C(=O)NCCCCCCNC(=O)N2CC[C@H]3CC[C@@H](C(=O)N[C@@H]4CCC[C@H]4c4ccccc4)N3C(=O)[C@@H](NC(=O)[C@H](C)NC)C2)CC[C@H]2CCC(C(=O)N[C@@H]3CCC[C@H]3c3ccccc3)N2C1=O` (stereo in doubt) [Example 43], the IC50 is below 3000 nM in assay [1]; below 1000 nM in assay [2] (setting [8]); below 3000 nM in assay [3]; below 3000 nM in assay [4]; below 1000 nM in assay [5] (setting [9]).

On to `CN[C@@H](C)C(=O)N[C@H]1CN(C(=O)Nc2ccc(NC(=O)N3CC[C@H]4CC[C@@H](C(=O)N[C@@H]5CCC[C@@H]5c5ccccc5)N4C(=O)[C@@H](NC(=O)[C@H](C)NC)C3)cc2)CC[C@H]2CC[C@@H](C(=O)N[C@@H]3CCC[C@@H]3c3ccccc3)N2C1=O` [Example 34], for which the IC50 is below 1000 nM in assay [1]; below 100 nM in assay [2] (setting [8]); below 1000 nM in assay [3]; below 1000 nM in assay [4]; below 100 nM in assay [5] (setting [9]).

Turning to `CN[C@@H](C)C(=O)N[C@H]1CN(C(=O)NCCCCCCNC(=O)N2CC[C@H]3CC[C@@H](C(=O)N[C@@H]4CCC[C@@H]4c4ccccc4)N3C(=O)[C@@H](NC(=O)[C@H](C)NC)C2)CC[C@H]2CCC(C(=O)N[C@@H]3CCC[C@@H]3c3ccccc3)N2C1=O` (stereo in doubt) [Example 44], the half-inhibitory concentration (IC50) is below 3000 nM in assay [1]; below 1000 nM in assay [2] (setting [8]); below 1000 nM in assay [3]; below 1000 nM in assay [4]; below 1000 nM in assay [5] (setting [9]).

As to `CN[C@@H](C)C(=O)N[C@H]1CN(C(=O)Nc2ccc(NC(=O)N3CC[C@H]4CC[C@@H](C(=O)N[C@@H]5CCCc6ccccc65)N4C(=O)[C@@H](NC(=O)[C@H](C)NC)C3)cc2)CC[C@H]2CCC(C(=O)N[C@@H]3CCCc4ccccc43)N2C1=O` (some centres unmarked) [Example 5], the IC50 in assay [1] is below 100 nM; in assay [2] (setting [8]) it was below 100 nM; in assay [3], below 10 nM; in assay [4], below 100 nM; in assay [5] (setting [9]) it was below 100 nM.

For the compound `CN[C@@H](C)C(=O)N[C@H]1CN(C(=O)NCCCCCCNC(=O)N2CC[C@H]3CC[C@@H](C(=O)N[C@H]4CCCC[C@@H]4c4ccccc4)N3C(=O)[C@@H](NC(=O)[C@H](C)NC)C2)CC[C@H]2CCC(C(=O)N[C@H]3CCCC[C@@H]3c3ccccc3)N2C1=O` (stereo in doubt) [Example 40], the IC50 was below 3000 nM in assay [1]; below 10000 nM in assay [2] (MDA-MB-231 breast cancer cell line); below 3000 nM in assay [3]; below 3000 nM in assay [4]; below 10000 nM in assay [5] (SK-OV-3 ovarian cancer cell line).

As to `CN[C@@H](C)C(=O)N[C@H]1CN(C(=O)Nc2ccc(NC(=O)N3CC[C@H]4CC[C@@H](C(=O)N[C@H]5C[C@@H]5c5ccc(F)cc5)N4C(=O)[C@@H](NC(=O)[C@H](C)NC)C3)cc2)CC[C@H]2CC[C@@H](C(=O)N[C@H]3C[C@@H]3c3ccc(F)cc3)N2C1=O` [Example 29], the IC50 is below 1000 nM in assay [1]; below 5000 nM in assay [2] (setting [8]); below 1000 nM in assay [3]; below 1000 nM in assay [4]; below 5000 nM in assay [5] (setting [9]).

In the case of `CN[C@@H](C)C(=O)N[C@H]1CN(C(=O)Nc2ccc(NC(=O)N3CC[C@H]4CC[C@@H](C(=O)N[C@@H]5CCC[C@H]5c5ccccc5)N4C(=O)[C@@H](NC(=O)[C@H](C)NC)C3)cc2)CC[C@H]2CC[C@@H](C(=O)N[C@@H]3CCC[C@H]3c3ccccc3)N2C1=O` [Example 32], the IC50 in assay [1] is below 3000 nM; in assay [2] (setting [8]) it was below 1000 nM; in assay [3] it was below 3000 nM; in assay [4] it was below 3000 nM; in assay [5] (setting [9]), below 1000 nM.

In the case of `CN[C@@H](C)C(=O)N[C@H]1CN(C(=O)NCCCCCCCCNC(=O)N2CC[C@H]3CC[C@@H](C(=O)N[C@@H]4CCCc5ccccc54)N3C(=O)[C@@H](NC(=O)[C@H](C)NC)C2)CC[C@H]2CCC(C(=O)N[C@@H]3CCCc4ccccc43)N2C1=O` (some centres unmarked) [Example 4], the IC50 was below 100 nM in assay [1]; below 100 nM in assay [2] (setting [6]); below 10 nM in assay [3]; below 100 nM in assay [4]; below 100 nM in assay [5] (setting [7]).

`CN[C@@H](C)C(=O)N[C@H]1CN(C(=O)Nc2ccc(NC(=O)N3CC[C@H]4CC[C@@H](C(=O)N[C@H]5CCC[C@@H]5c5ccccc5)N4C(=O)[C@@H](NC(=O)[C@H](C)NC)C3)cc2)CC[C@H]2CC[C@@H](C(=O)N[C@H]3CCC[C@@H]3c3ccccc3)N2C1=O` [Example 33]: the IC50 in assay [1] is below 3000 nM; in assay [2] (setting [8]), below 1000 nM; in assay [3], below 3000 nM; in assay [4] it was below 3000 nM; in assay [5] (setting [9]), below 1000 nM.

Turning to `CN[C@@H](C)C(=O)N[C@H]1CN(C(=O)NCc2cccc(CNC(=O)N3CC[C@H]4CC[C@@H](C(=O)N[C@@H]5CCCc6ccccc65)N4C(=O)[C@@H](NC(=O)[C@H](C)NC)C3)c2)CC[C@H]2CCC(C(=O)N[C@@H]3CCCc4ccccc43)N2C1=O` (some centres unmarked) [Example 6], the IC50 in assay [1] is below 100 nM; in assay [2] (setting [6]), below 100 nM; in assay [3], below 10 nM; in assay [4] it was below 100 nM; in assay [5] (setting [7]), below 100 nM.

As to `CN[C@@H](C)C(=O)N[C@H]1CN(C(=O)Nc2ccc(Cc3ccc(NC(=O)N4CC[C@H]5CC[C@@H](C(=O)N[C@@H]6CCCc7ccccc76)N5C(=O)[C@@H](NC(=O)[C@H](C)NC)C4)cc3)cc2)CC[C@H]2CCC(C(=O)N[C@@H]3CCCc4ccccc43)N2C1=O` (some centres unmarked) [Example 12], the IC50 is below 100 nM in assay [1]; below 100 nM in assay [2] (setting [8]); below 10 nM in assay [3]; below 100 nM in assay [4]; below 100 nM in assay [5] (setting [9]).

With `CN[C@@H](C)C(=O)N[C@H]1CN(C(=O)NCCCCCCNC(=O)N2CC[C@H]3CC[C@@H](C(=O)NC(c4ccccc4)c4ccccc4)N3C(=O)[C@@H](NC(=O)[C@H](C)NC)C2)CC[C@H]2CCC(C(=O)NC(c3ccccc3)c3ccccc3)N2C1=O` (some centres unmarked) [Example 13], the IC50 in assay [1] is below 300 nM; in assay [2] (setting [8]), below 100 nM; in assay [3], below 30 nM; in assay [4] it was below 300 nM; in assay [5] (setting [9]) it was below 100 nM.

With `CN[C@@H](C)C(=O)N[C@H]1CN(S(=O)(=O)CCCCCCS(=O)(=O)N2CC[C@H]3CC[C@@H](C(=O)NC(c4ccccc4)c4ccccc4)N3C(=O)[C@@H](NC(=O)[C@H](C)NC)C2)CC[C@H]2CCC(C(=O)NC(c3ccccc3)c3ccccc3)N2C1=O` (some centres unmarked) [Example 9], the IC50 in assay [1] was below 100 nM; in assay [2] (setting [6]) it was below 1000 nM; in assay [3], below 10 nM; in assay [4], below 100 nM; in assay [5] (setting [7]), below 1000 nM.
